# Values joined by “and” are separate entries in the source; they are usually repeats but may differ in a detail not shown here. Equal entries are not always repeated. Toxic doses and inconclusive results are not listed.
# Test system: CD2F1 mice, L1210 leukemia ip, survival T/C
# Assay: NCI In Vivo Anticancer Drug Screen. Data for tumor model L1210 Leukemia (intraperitoneal) in CD2F1 (CDF1) mice
# Conditions: higher = longer survival
# Procedure, shortened: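 Transplantable tumor in mice; compound-treated vs vehicle-treated groups. Read-out = treated/control ratio of the measured endpoint.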
# [1] = endpoint: mean survival time, dose: 100.0 mg/kg/injection, schedule: Q01DX001 (ip), vehicle: saline
# [2] = endpoint: mean survival time, dose: 200.0 mg/kg/injection, schedule: Q01DX001 (ip), vehicle: saline
# [3] = endpoint: mean survival time, dose: 400.0 mg/kg/injection, schedule: Q01DX001 (ip), vehicle: saline
# [4] = endpoint: mean survival time, dose: 100.0 mg/kg/injection, schedule: Q04DX002 (ip), vehicle: saline with Tween-80
# [5] = endpoint: mean survival time, dose: 200.0 mg/kg/injection, schedule: Q04DX002 (ip), vehicle: saline with Tween-80
# [6] = endpoint: mean survival time, dose: 400.0 mg/kg/injection, schedule: Q04DX002 (ip), vehicle: saline with Tween-80
# [7] = endpoint: mean survival time, dose: 100.0 mg/kg/injection, schedule: Q01DX009 (ip), vehicle: Klucel (hydroxypropylcellulose) (HPC)
# [8] = endpoint: mean survival time, dose: 200.0 mg/kg/injection, schedule: Q01DX009 (ip), vehicle: Klucel (hydroxypropylcellulose) (HPC)
# [9] = endpoint: mean survival time, dose: 100.0 mg/kg/injection, schedule: Q04DX003 (ip), vehicle: saline with Tween-80
# [10] = endpoint: mean survival time, dose: 200.0 mg/kg/injection, schedule: Q01DX009 (ip), vehicle: saline with Tween-80
# [11] = endpoint: mean survival time, dose: 200.0 mg/kg/injection, schedule: Q04DX003 (ip), vehicle: saline with Tween-80
# [12] = endpoint: mean survival time, dose: 400.0 mg/kg/injection, schedule: Q04DX003 (ip), vehicle: saline with Tween-80
# [13] = endpoint: mean survival time, dose: 100.0 mg/kg/injection, schedule: Q01DX001 (ip), vehicle: saline with Tween-80
# [14] = endpoint: mean survival time, dose: 200.0 mg/kg/injection, schedule: Q01DX001 (ip), vehicle: saline with Tween-80
# [15] = endpoint: mean survival time, dose: 100.0 mg/kg/injection, schedule: Q01DX009 (ip), vehicle: saline with Tween-80
# [16] = endpoint: mean survival time, dose: 25.0 mg/kg/injection, schedule: Q04DX002 (ip), vehicle: saline with Tween-80
# [17] = endpoint: mean survival time, dose: 50.0 mg/kg/injection, schedule: Q04DX002 (ip), vehicle: saline with Tween-80
structure (smiles),measurement,setting,value
NC(=S)NNc1c(NNC(N)=S)c(=O)c1=O,T/C,[1],93 % of control
same,T/C,[2],98 % of control
same,T/C,[3],102 % of control
O=C1CC2/C(=[N+](/[O-])O)C=C([N+](=O)[O-])C(C1C(=O)Nc1ccccc1)C2[N+](=O)[O-] (configuration not stated),T/C,[4],110 % of control
same,T/C,[5],98 % of control
same,T/C,[6],110 % of control
Nc1nc(N)n2nnnc2c1[N+](=O)[O-],T/C,"endpoint: mean survival time, dose: 100.0 mg/kg/injection, schedule: Q01DX001 (ip), vehicle: carboxymethylcellulose (CMC)",108 % of control
O=C1CSC(=S)N1/N=C/c1cc2c(cc1[N+](=O)[O-])OCO2,T/C,"endpoint: mean survival time, dose: 75.0 mg/kg/injection, schedule: Q01DX001 (ip), vehicle: other",102 % of control
same,T/C,"endpoint: mean survival time, dose: 300.0 mg/kg/injection, schedule: Q01DX001 (ip), vehicle: other",90 % of control
O=C(/C=C/c1ccc(Cl)c(Cl)c1)/C=C/c1ccc(Cl)c(Cl)c1,T/C,"endpoint: mean survival time, dose: 50.0 mg/kg/injection, schedule: Q01DX009 (ip), vehicle: Klucel (hydroxypropylcellulose) (HPC)",98 % of control
same,T/C,[7],94 % of control
same,T/C,[8],90 % of control
CCC(=O)OCCNc1ccc([N+](=O)[O-])cc1[N+](=O)[O-],T/C,"endpoint: mean survival time, dose: 100.0 mg/kg/injection, schedule: Q04DX002 (ip), vehicle: other",106 % of control
same,T/C,"endpoint: mean survival time, dose: 200.0 mg/kg/injection, schedule: Q04DX002 (ip), vehicle: other",109 % of control
same,T/C,"endpoint: mean survival time, dose: 400.0 mg/kg/injection, schedule: Q04DX002 (ip), vehicle: other",91 % of control
CSc1ccc(O)c(C)c1,T/C,[9],104 % of control
same,T/C,[10],97 % of control
same,T/C,[11],102 % of control
same,T/C,[12],104 % of control
O=C1CCCN1C1CC2c3ccccc3C1c1cccc[n+]12 (configuration not stated),T/C,"endpoint: mean survival time, dose: 5.0 mg/kg/injection, schedule: Q04DX003 (ip), vehicle: saline with Tween-80",95 % of control
same,T/C,"endpoint: mean survival time, dose: 10.0 mg/kg/injection, schedule: Q04DX003 (ip), vehicle: saline with Tween-80",95 % of control
same,T/C,"endpoint: mean survival time, dose: 20.0 mg/kg/injection, schedule: Q04DX003 (ip), vehicle: saline with Tween-80",97 % of control
COc1ccc(-c2nc3ccccc3nc2-c2ccc(OC)cc2)cc1,T/C,[9],94 % of control
same,T/C,[11],94 % of control
CC1CC(C)(C)N=C(C(C)CC2CCCCC2)O1 (configuration not stated),T/C,[13],95 % of control
same,T/C,[14],93 % of control
CC(C)(C)OC(=O)NC(Cc1cn(Cc2ccccc2)cn1)C(=O)O (configuration not stated),T/C,[9],95 % of control
same,T/C,[11],101 % of control
same,T/C,[12],93 % of control
Nc1nc2ccccc2c2c1C(=O)NC2=O,T/C,"endpoint: mean survival time, dose: 50.0 mg/kg/injection, schedule: Q01DX009 (ip), vehicle: saline with Tween-80",103 % of control
same,T/C,[15],100 % of control
same,T/C,[9],95 % of control
same,T/C,[10],96 % of control
same,T/C,[11],91 % of control
CCC(CC)c1ccccn1,T/C,"endpoint: mean survival time, dose: 100.0 mg/kg/injection, schedule: Q01DX009 (ip), vehicle: saline",115 % of control
same,T/C,"endpoint: mean survival time, dose: 100.0 mg/kg/injection, schedule: Q04DX003 (ip), vehicle: saline",99 % of control
same,T/C,"endpoint: mean survival time, dose: 200.0 mg/kg/injection, schedule: Q01DX009 (ip), vehicle: saline",120 % of control
same,T/C,"endpoint: mean survival time, dose: 200.0 mg/kg/injection, schedule: Q04DX003 (ip), vehicle: saline",99 % of control
same,T/C,"endpoint: mean survival time, dose: 400.0 mg/kg/injection, schedule: Q01DX009 (ip), vehicle: saline",117 % of control
same,T/C,"endpoint: mean survival time, dose: 400.0 mg/kg/injection, schedule: Q04DX003 (ip), vehicle: saline",110 % of control
Nc1nc([S-])c2[nH]cnc2n1.[Cl-].[Cl-].[H+].[Pd+2].[Pd+2].[Pd+2],T/C,"endpoint: mean survival time, dose: 3.13 mg/kg/injection, schedule: Q04DX003 (ip), vehicle: saline with Tween-80",124 % of control
same,T/C,"endpoint: mean survival time, dose: 6.25 mg/kg/injection, schedule: Q04DX003 (ip), vehicle: saline with Tween-80",164 % of control
same,T/C,"endpoint: mean survival time, dose: 100.0 mg/kg/injection, schedule: Q04DX003 (ip), vehicle: suspension in saline",114 % of control and 91 % of control
ClC1C(Cl)(Cl)C1(Cl)Cl,T/C,"endpoint: mean survival time, dose: 37.5 mg/kg/injection, schedule: Q01DX001 (ip), vehicle: saline",100 % of control
same,T/C,"endpoint: mean survival time, dose: 75.0 mg/kg/injection, schedule: Q01DX001 (ip), vehicle: saline",102 % of control
same,T/C,"endpoint: mean survival time, dose: 150.0 mg/kg/injection, schedule: Q01DX001 (ip), vehicle: saline",95 % of control
Cc1nc(N)nc(N)n1,T/C,[9],100 % of control
same,T/C,[11],100 % of control
same,T/C,[12],97 % of control
COC(=O)C(Br)CCC(Br)C(=O)OC (configuration not stated),T/C,"endpoint: mean survival time, dose: 50.0 mg/kg/injection, schedule: Q04DX003 (ip), vehicle: saline with Tween-80",94 % of control
same,T/C,[15],95 % of control
same,T/C,[9],94 % of control
same,T/C,[10],103 % of control
same,T/C,[11],94 % of control
CCOC(=O)c1ccc(NC(=O)c2ccc(OCCOc3ccc(C(C)(C)CC(C)(C)C)cc3)c(NC(=O)CC(=O)c3cccc([N+](=O)[O-])c3)c2)cc1,T/C,[7],92 % of control
same,T/C,"endpoint: mean survival time, dose: 100.0 mg/kg/injection, schedule: Q04DX003 (ip), vehicle: Klucel (hydroxypropylcellulose) (HPC)",111 % of control
same,T/C,[8],92 % of control
same,T/C,"endpoint: mean survival time, dose: 200.0 mg/kg/injection, schedule: Q04DX003 (ip), vehicle: Klucel (hydroxypropylcellulose) (HPC)",100 % of control
same,T/C,"endpoint: mean survival time, dose: 400.0 mg/kg/injection, schedule: Q01DX009 (ip), vehicle: Klucel (hydroxypropylcellulose) (HPC)",103 % of control
same,T/C,"endpoint: mean survival time, dose: 400.0 mg/kg/injection, schedule: Q04DX003 (ip), vehicle: Klucel (hydroxypropylcellulose) (HPC)",102 % of control
CC(C)(C#N)OC(=O)Nc1cccc(Cl)c1,T/C,[4],93 % of control
same,T/C,[5],90 % of control
same,T/C,[6],86 % of control
Nc1c(/C=C/c2cc3cc(C4=NCCN4)ccc3o2)[nH]c2cc(C3=NCCN3)ccc12,T/C,"endpoint: median survival time, dose: 3.12 mg/kg/injection, schedule: Q01DX009 (ip), vehicle: Klucel (hydroxypropylcellulose) (HPC)",124 % of control
same,T/C,"endpoint: median survival time, dose: 18.0 mg/kg/injection, schedule: Q01DX005 (ip), vehicle: Klucel (hydroxypropylcellulose) (HPC)",178 % of control
same,T/C,"endpoint: median survival time, dose: 25.0 mg/kg/injection, schedule: Q01DX005 (ip), vehicle: Klucel (hydroxypropylcellulose) (HPC)",160 % of control
same,T/C,"endpoint: median survival time, dose: 30.0 mg/kg/injection, schedule: Q01DX005 (ip), vehicle: Klucel (hydroxypropylcellulose) (HPC)",297 % of control
same,T/C,"endpoint: median survival time, dose: 50.0 mg/kg/injection, schedule: Q01DX005 (ip), vehicle: Klucel (hydroxypropylcellulose) (HPC)",171 % of control and 237 % of control
C=Cc1cc[n+](CCCCCC[n+]2ccc(C=C)cc2)cc1,T/C,[1],92 % of control
same,T/C,[2],92 % of control
same,T/C,[3],88 % of control
CCC(=O)n1nc(-c2ccccc2)c2ccccc21,T/C,[16],100 % of control
same,T/C,[17],88 % of control
same,T/C,[4],96 % of control
same,T/C,[5],103 % of control
CCOC(=O)c1cn(C)c2c1C(O)=C(C(=O)OC)CC(=O)N2,T/C,"endpoint: median survival time, dose: 25.0 mg/kg/injection, schedule: Q01DX009 (ip), vehicle: saline with Tween-80",90 % of control
same,T/C,"endpoint: median survival time, dose: 50.0 mg/kg/injection, schedule: Q01DX009 (ip), vehicle: saline with Tween-80",98 % of control
same,T/C,"endpoint: median survival time, dose: 100.0 mg/kg/injection, schedule: Q01DX009 (ip), vehicle: saline with Tween-80",92 % of control
same,T/C,"endpoint: median survival time, dose: 200.0 mg/kg/injection, schedule: Q01DX009 (ip), vehicle: saline with Tween-80",94 % of control
same,T/C,"endpoint: median survival time, dose: 400.0 mg/kg/injection, schedule: Q01DX009 (ip), vehicle: saline with Tween-80",90 % of control
O=C1C(O)=C(c2ccccc2)C(=O)C(O)=C1c1ccccc1,T/C,"endpoint: mean survival time, dose: 3.12 mg/kg/injection, schedule: Q01DX009 (ip), vehicle: saline",96 % of control
same,T/C,"endpoint: mean survival time, dose: 6.25 mg/kg/injection, schedule: Q01DX009 (ip), vehicle: saline",95 % of control
same,T/C,"endpoint: mean survival time, dose: 12.5 mg/kg/injection, schedule: Q01DX009 (ip), vehicle: saline",97 % of control
same,T/C,"endpoint: mean survival time, dose: 25.0 mg/kg/injection, schedule: Q01DX009 (ip), vehicle: saline",101 % of control
same,T/C,"endpoint: mean survival time, dose: 50.0 mg/kg/injection, schedule: Q01DX009 (ip), vehicle: saline",108 % of control
CCOC(=O)CCCCSCCCCC(=O)OCC,T/C,[13],100 % of control
same,T/C,[14],105 % of control
same,T/C,"endpoint: mean survival time, dose: 400.0 mg/kg/injection, schedule: Q01DX001 (ip), vehicle: saline with Tween-80",101 % of control
COC1OC(CNC(=O)N(C)N=O)C(O)C(O)C1O (configuration not stated),T/C,"endpoint: mean survival time, dose: 33.0 mg/kg/injection, schedule: Q01DX009 (ip), vehicle: saline",120 % of control
same,T/C,"endpoint: mean survival time, dose: 113.0 mg/kg/injection, schedule: Q01DX009 (ip), vehicle: saline",153 % of control
NC(N)=N/N=C\c1ccc2ccccc2c1,T/C,[16],97 % of control
same,T/C,[17],101 % of control

# Source: PubChem BioAssay AID256 (DTP/NCI, 2004)
